Experimental data taken from paper PMC8279406 (Journal of Medicinal Chemistry, 2021).

Assays:
[1] = system: nectin1; experiment: Integrin internalization assay, surface nectin1 control by flow cytometry; type: cell-based; details: J cells with nectin1, αvβ6 and αvβ8, 700 μM, 1 h at 37 °C
Method: Figure 5 Integrin internalization assay. J cells were transfected with a low amount (75 ng of DNA/24 well) of nectin1 plus αvβ6 integrin (300 ng of DNA/24 well) and αvβ8 integrin (300 ng of DNA/24 well). Then, 48 h after transfection, the cells were exposed to 700 μM peptides for 1 h at 37 °C. Cells derived from samples treated or not treated with peptides were incubated for 1 h at 4 °C with FAB4155A (mAbβ6), FAB4775A (mAbβ8), and R1.302 (mAbnectin1) mAbs. Samples incubated with R1.302 were washed and subsequently incubated for 1 h at 4 °C with the allophycocyanin (APC) mouse secondary antibody. Integrin and nectin1 surface expression levels were quantified as flow cytometry expression of the APC mean fluorescence intensity (MFI) of gated cells. Histograms represent the average of triplicates ± SD.
J cells were transfected with low amounts of plasmids encoding nectin1 (75 ng of DNA/24 well), plus plasmids encoding αv + β6 and αv + β8 integrins (300 ng of DNA/24 well) by means of Lipofect 2000 (Life Technologies). Then, 48 h after transfection, the cells were incubated with a single concentration of peptides (700 μM) for 1 h at 37 °C. At the end of the treatment with the peptides, half of the sample was used to visualize the expression of integrins β6 and β8 or of nectin1 used as a control in a flow cytometry assay. […]

[2] = system: T1, integrin β6; experiment: Integrin internalization assay, surface integrin β6 by flow cytometry; type: cell-based, human; details: J cells with nectin1, αvβ6 and αvβ8, 700 μM, 1 h at 37 °C
T1 construct: expressed in transfected cells; host or cells: J cells (derivatives of BHK-TK2 hamster cells)
Source text: Therefore, another mechanism might be responsible for the activity of 6 on J cells expressing αvβ8 integrin alone as well as the higher activity of 6 than that of 1 in cells that express both αvβ6 and αvβ8.[38] Thus, we hypothesized that 6 can prevent HSV-1 entry into J cells expressing nectin1 and the αvβ8 integrin alone by inducing internalization of the integrin itself. To validate our hypothesis, J cells were transfected with nectin1 and the two integrins αvβ6 and αvβ8 in the above-described manner. Then, 48 h after transfection, the cells were incubated for 60 min at 37 °C with 1 or 6. The surface expression of integrin β6 and β8, in the presence or the absence of peptides, was then evaluated by flow cytometry using FAB4155A (mAbβ6) and FAB4775A (mAbβ8) monoclonal antibodies that recognize other integrin regions than the RGD-binding domain.
Figure 5 Integrin internalization assay. J cells were transfected with a low amount (75 ng of DNA/24 well) of nectin1 plus αvβ6 integrin (300 ng of DNA/24 well) and αvβ8 integrin (300 ng of DNA/24 well). Then, 48 h after transfection, the cells were exposed to 700 μM peptides for 1 h at 37 °C. […] Integrin and nectin1 surface expression levels were quantified as flow cytometry expression of the APC mean fluorescence intensity (MFI) of gated cells. […]

[3] = system: gHsolST; experiment: gH binding assay, gHsolST binding to transfected J cells; type: cell-based, HSV-1; details: J cells with nectin1, αvβ6 and αvβ8, 700 μM peptide, 2 μM gHsolST
Method: To further verify this hypothesis, the soluble form of gH (gHsolST) was used in a soluble protein in the cell-binding assay on J cells transfected with nectin1 and the αvβ6 and αvβ8 integrins, treated or untreated with each peptide.
Figure 6 gH binding assay. J cells were transfected with a low amount (75 ng of DNA/24 well) of nectin1 plus αvβ6 integrin (300 ng of DNA/24 well) and αvβ8 integrin (300 ng of DNA/24 well). Then, 48 h after transfection, the cells were exposed to 700 μM peptides for 1 h at 37 °C. Cells derived from samples treated or not treated with peptides were incubated for 1 h at 4 °C with gHsolST or gBsolST. Samples were washed and subsequently incubated for 1 h at 4 °C with phycoerythrin (PE)-conjugated mAb to the One-STrEP tag (Strep-Tactin). gHsolST and gBsolST binding to the cell surface were quantified as the flow cytometry expression of the PE mean fluorescence intensity (MFI) of gated cells. Histograms represent the average of triplicates ± SD.
The remaining half of the samples were used for the gH binding assay. […] Control cells were incubated with 2 μM gBsolST in 100 μL of the same buffer used for gHsolST and the binding of soluble protein was detected as described for the gH binding assay. Cells were analyzed by cytofluorimetric analyses using an AccuriC6 flow cytometer (Becton Dickinson). […]

| Compound | surface expression of nectin1 (in words) [1] | membrane expression of integrin β6 (in words) [2] | binding of gHsolST to cells (in words) [3] |
| --- | --- | --- | --- |
| CN1C(=O)[C@H](C2CCCCC2)NC(=O)[C@H](CC(=O)O)NC(=O)CNC(=O)[C@H](CCCNC(=N)N)NC(=O)CC[C@H]1C(N)=O [compound 6, [Arg-Gly-Asp-Chg-(NMe)Glu]-CONH2] | not altered | reduced | strongly reduced |
| N=C(N)NCCC[C@@H]1NC(=O)CC[C@@H](C(N)=O)NC(=O)[C@H](C2CCCCC2)NC(=O)[C@H](CC(=O)O)NC(=O)CNC1=O [compound 1, [Arg-Gly-Asp-Chg-Glu]-CONH2] | not altered | reduced | only partially reduced |
